Reference: PubChem BioAssay AID1322 (NMMLSC, 2008)
The source made the active and inactive calls. No rule for the calls is given here.

Target: Bcl-2-like protein 1 (Homo sapiens) (UniProt Q07817)
Assay: Bim-Bcl-XL interaction inhibitors, potency, dose response, biochemical, multiplexed, bead flow cytometry, human Bcl-XL (AID 1322); as to inhibition: test concentration not given here
Conditions: Bead-based flow cytometry, Bim peptide-Bcl-XL binding, MCF

Sequence of Bcl-2-like protein 1 (Homo sapiens) (Q07817 whole entry, looked up): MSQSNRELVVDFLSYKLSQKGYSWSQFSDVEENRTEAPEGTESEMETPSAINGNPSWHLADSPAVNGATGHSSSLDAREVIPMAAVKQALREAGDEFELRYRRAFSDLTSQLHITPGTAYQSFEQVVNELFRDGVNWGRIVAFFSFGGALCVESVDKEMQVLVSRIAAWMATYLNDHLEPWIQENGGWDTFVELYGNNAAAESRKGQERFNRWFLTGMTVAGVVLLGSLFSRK

outcome, inactive:
COc1ccc(N2CCN(C(CNS(=O)(=O)c3ccc4c(c3)OCCO4)c3ccco3)CC2)cc1 (stereo unspecified)
COc1ccc(C(=O)NC(=S)N2CCNC(=O)C2)cc1Br
Cc1cc(N2CCN(C)CC2)nc2ccc(NC(=S)N3CCC4(CC3)OCCO4)cc12
CC1CCN(C2(O)C(=O)Nc3ccc(Br)cc32)CC1 (stereo unspecified)
CCN(CC)C(=O)COC(=O)c1cc(-c2ccco2)nc2ccccc12
CCOC(=O)c1ccc(N=c2ssnc2Cl)cc1
Cn1c(=O)c2cc(S(=O)(=O)Nc3cc(C(=O)O)cc(C(=O)O)c3)ccc2n(C)c1=O
COC(=O)c1cccc(-n2c(C)cc(C=O)c2C)c1
CCc1ccc(NC(=O)Cc2ccc(OC)cc2)cc1
Cc1cc(N/C(=N/S(=O)(=O)c2cc(F)ccc2F)c2ccccc2)n(-c2ccccc2)n1
C=CCN1C(=O)/C(=C/c2ccsc2)SC1=S
COc1ccc(CC(=O)Nc2ccccc2Oc2ccccc2)cc1
COC(=O)c1[nH]c2ccccc2c1NC(=O)c1ccccc1[N+](=O)[O-]
CC1C=CCC2C(=O)N(c3ccc(OC(=O)c4cccs4)cc3)C(=O)C12 (stereo unspecified)
Cc1ccc(-c2cc(C(=O)Nc3cc(C(=O)O)ccc3C)c3ccccc3n2)cc1
O=C(CCc1ccccc1)N1CCN(c2ccccn2)CC1
CN(C)c1cccc(NC(=O)C2(C)CC2(Cl)Cl)c1 (stereo unspecified)
COc1ccc(OC)c(Nc2ccc(C(=O)O)cc2[N+](=O)[O-])c1
COC(=O)c1ccc(/C=N/NC(=O)CC(=O)NCc2cccnc2)cc1
CC1Nc2ccccc2C(=O)N1NS(=O)(=O)c1ccccc1 (stereo unspecified)

Same assay, conditions: Bead-based flow cytometry, Bim peptide-Bcl-XL binding, MCF

inhibition, inactive:
CSc1nnc2ccc(-c3cccs3)nn12
O=C(NC1=C(Nc2ccc(Cl)cc2)C(=O)c2ccccc2C1=O)c1ccccc1
c1coc(C2=Nc3cccc4cccc(c34)N2)c1
CCOc1ccc(N2C(=O)C(Cl)=C(Nc3ccccc3O)C2=O)cc1
CNc1ccc(Br)cc(C(=O)/C=C/c2cccc(OC)c2OC)c1=O
Cc1cccc(/C=N/N(CCO)C2=NS(=O)(=O)c3ccccc32)c1
CCn1c(SCC(=O)Nc2ccc(C)cc2)nnc1-c1ccc(O)cc1
CCN(CC)c1ccc(-c2nn3c(-c4n[nH]c5c4CCC5)nnc3s2)cc1
Cc1cc(C(=O)NCCCN(C)C)c2ccccc2n1
O=C(Nc1ccc(Cl)cn1)Nc1ccccc1F
CCCCCCn1nc(C(=O)Nc2nc3c(s2)CCCC3)c2ccccc2c1=O
CCN(CC)c1ccc(NC(=O)c2ccccc2Br)cc1S(=O)(=O)Nc1ccccc1OC
CCN(CC)c1ccc(Nc2nc(N3CCOCC3)c3ccccc3n2)cc1
Cc1noc(C)c1COc1ccc(C(=O)Nc2cccnc2)cc1
COc1ccc(C2CC(=O)C3=C(C2)Nc2ccccc2NC3c2coc3ccccc3c2=O)cc1OC (stereo unspecified)
O=C(OCc1cnc(Cl)s1)c1cccc(Cl)c1Cl
Cc1cc(C)c2nc3nc(C)cc(C)c3c(N)c2c1
CN(C)c1ncc(C2=C(Cl)C(=O)C(N3CCCC3)=C(Cl)C2=O)s1
COc1ccc(C2=Nn3c(nnc3-c3ccccn3)SC2)cc1OC
CCSc1ncc(Cl)c(C(=O)Nc2sc3c(c2C(=O)NCc2cccnc2)CCCC3)n1
Cc1ccc(-n2c(CSc3nc(C)cc(C)n3)nnc2SCC(=O)NCc2ccco2)cc1
C/C(=N\NC(=O)COc1ccc(C(C)(C)C)cc1)c1ccc2c(c1)OCCO2
CNCc1ccccc1Sc1ccc(O)c(O)c1
COc1cccc2c1C(=O)C=C(C)C2=O
Cc1ccc(C(=O)N/N=C2/NC(=O)CC(C(=O)Nc3ccccc3)S2)cc1 (stereo unspecified)
COc1ccccc1NC1=C(NC(C)=O)C(=O)c2ccccc2C1=O
O=C(Nc1ccccc1N1CCOCC1)c1cccs1
Cc1nc2ccccc2n1CSc1ccccc1
Cc1occc1C(=O)NNC(=S)NCc1ccccc1
CNc1ccc(Br)cc(C(=O)/C=C/c2ccc(OC)cc2)c1=O
Cc1cccc(Nc2nc(-c3ccncc3)cs2)c1
CCc1nnc(NC(=O)CSc2nnc(COc3ccc(C)cc3)n2-c2ccccc2)s1
CC1=CC(=O)c2ccccc2C1=O
Cc1ccc(NC(=O)CSc2nc3ccccc3c(=O)n2CCCN2CCCCC2)cc1Cl
COc1ccc(C2C(C#N)=C(C)NC3=C2S(=O)(=O)c2ccccc23)cc1 (stereo unspecified)
CCCn1c(N2CCN(C)CC2)nc2c1c(=O)[nH]c(=O)n2C
Cc1ccc(-c2cc(C(=O)N3CCN(c4ncccn4)CC3)c3cc(Br)ccc3n2)o1
O=C(O)CC/C(=C\c1cc([N+](=O)[O-])ccc1Cl)c1nc2ccccc2s1
COc1cc(NC(=S)NC(=O)c2cc(C)cc(C)c2)ccc1NC(=O)c1cccs1
Cc1ccc(-c2cc(-c3ccc(F)cc3)nc(N)c2C#N)o1
CCC(CC)C(=O)Nc1cccc(SC)c1
CCN(CC)c1ccc(NC(=O)c2ccc(=O)[nH]c2)cc1S(=O)(=O)Nc1ccccc1OC
COC(=O)CCC(=O)Nc1sc(Cc2ccccc2)c(C)c1C(N)=O
O=C(c1ccc(CNS(=O)(=O)c2ccc(Br)cc2)cc1)N1CCCC1
Cc1cc(NC(=O)CCSc2ccccc2)ccc1Br
COC(=O)c1c(NC(=O)COc2ncnc3ccccc23)sc(C)c1C
CCNC(=O)N1c2ccc(OCC)cc2C(C)=CC1(C)C
COc1cc(CNc2ccc(N3CCCC3)cc2)cc(Cl)c1OC
COc1ccc(-n2c(SCC(=O)Nc3ccc(C(=O)O)cc3)nnc2-c2cccs2)cc1
CCN1C(=O)/C(=C\C=C2/C=CC=CN2CC)SC1=S
O=C(Nc1ccccc1)Nc1ccc2ncoc2c1
CCOc1ccc(C2=Nn3c(nnc3-c3ccco3)SC2)cc1
S=c1[nH]cc(-c2ccccc2)n1-c1ccccc1
Cc1cc(C)nc(SCc2cc(=O)c(OC(=O)c3cccc([N+](=O)[O-])c3)co2)n1
COc1ccccc1NC(=O)CSc1ncn(-c2ccccc2)n1
NCC(c1ccccc1)c1c[nH]c2ccccc12 (stereo unspecified)
COc1ccc(S(=O)(=O)NCCSc2ccccc2)cc1OC
Cc1ccc(-c2cc(-c3ccc4c(c3)OCO4)c(C#N)c(N)n2)o1
Cc1ccc(-c2cc(-c3ccccc3Cl)c(C#N)c(N)n2)o1
COCCNC(=S)Nc1cc(OC)c(OC)cc1C#N
CC(NC(=O)Nc1ccccn1)N1C(=O)C2C3C=CC(C3)C2C1=O (stereo unspecified)
COc1cccc2c(SCC(=O)N/N=C/c3ccc(O)c(O)c3)cc(C)nc12
CN(Cc1ccccc1)C(=O)c1[nH]cnc1C(=O)N[C@@H](CCCCNC(=O)OC(C)(C)C)C(=O)OC(C)(C)C
Cc1ccc(S(=O)(=O)N(C)CC(=O)N2CCc3ccccc32)cc1
Cc1ccc(N=c2ssnc2Cl)cc1
Fc1ccccc1-n1cc(-c2ccccc2)[nH]c1=S
Cc1cc(-c2cc(-c3ccc(Cl)cc3)nc(N)c2C#N)co1
COc1cc2c(cc1OC)C(c1ccccc1F)OC(=O)C2 (stereo unspecified)
CC(C)CN1C(=O)/C(=C/c2ccco2)NC1=S
O=C(NCc1ccccc1)c1ccc2nc(-c3ccco3)c(-c3ccco3)nc2c1
CC1N(C)c2cccc3cccc(c23)N1C
COc1ccc2oc(-c3ccccc3)c(C(=O)N3CCOCC3)c2c1
CC(C)(C)C(=O)NC(NC(=S)Nc1ccc(S(N)(=O)=O)cc1)C(Cl)(Cl)Cl (stereo unspecified)
CCCC(=O)OCCNc1cc(Sc2nccn2C)c2nonc2c1[N+](=O)[O-]
COc1cc(N=c2ssnc2Cl)c(OC)cc1Cl
c1ccc(-c2nc(N3CCCCC3)nc3ccccc23)cc1
CCOC(=O)C1CCCN(c2ncnc3c2cnn3-c2cccc(C)c2)C1 (stereo unspecified)
COc1ccc2nc(C)cc(SCC(=O)N/N=C/c3ccc(O)c(O)c3)c2c1
O=C(Cn1c2ccccc2c(=O)c2ccccc21)N/N=C/c1ccc(N2CCCC2)c([N+](=O)[O-])c1
O=C(NC1=C(NC2CCS(=O)(=O)C2)C(=O)c2ccccc2C1=O)c1ccccc1 (stereo unspecified)
COc1ccc(C(=O)/C=C/c2cc(OC)c(O)c(OC)c2)c(F)c1
NC(=O)c1c(NC(=O)C2CCCO2)sc2c1CCCC2 (stereo unspecified)
N#CC(C#N)=C1C=CC=CN1/C(=C\c1ccco1)C(=O)c1ccccc1
Cc1ccc(-c2c3c([nH]c(=S)c2C#N)CCCC3)o1
O=C(N/N=C/c1ccc(O)c(O)c1O)/C(=C/c1ccc([N+](=O)[O-])cc1)NC(=O)c1ccccc1
Cc1ccc(Nc2nc(-c3c(C)nc4ncccn34)cs2)cc1
